What was measured:
dengue virus type 2 = test: Functional assay to measure dose dependent changes in antiviral-drug inhibitory efficacy against Dengue virus type 2 New Guinea C in Vero E6 miRFP670 cells (cotreated with P-gp inhibitor, CP100356). Cells are treated with antiviral candidates that are serially diluted, following infection, cells are fixed. EC50 is reported via analysis of fluorescence intensity using high-content imager. The …; assay type: organism-based, Chlorocebus sabaeus, Vero C1008; conditions: Dengue virus; for EC90: P-gp concentration 500 nM, P-gp inhibitor CP100356
Zika virus = test: Functional CPE-based assay to measure dose dependent changes in antiviral-drug inhibitory efficacy against Zika virus MR766 in Vero E6 miRFP670 cells (cotreated with P-gp inhibitor, CP100356). Cells are treated with antiviral candidates that are serially diluted. EC50 is reported via analysis of MTS assay as a readout of CPE. The assay has been performed by KU Leuven.; assay type: organism-based, Chlorocebus sabaeus, Vero C1008; conditions: Zika virus

| SMILES | EC50 (dengue virus type 2; Vero C1008) [µM] | EC50 (Zika virus; Vero C1008) [µM] | also measured |
| --- | --- | --- | --- |
| O=C(Nc1cc(Cl)cc([C@H](C#CCO)Nc2ccc(-c3nn[nH]n3)cc2)c1)OCc1ccccc1 | > 50 | – | EC90 (dengue virus type 2; Vero C1008, Maximum measured 120.318 %, Minimum measured 85.942 %): > 50 µM |
| CC(=Cc1cccc(CN)c1)c1cc(Cl)cc(NC(=O)OCc2ccccc2)c1 | > 6.25 | – | EC90 (dengue virus type 2; Vero C1008, Maximum measured 157.677 %, Minimum measured 102.187 %): > 6.25 µM |
| O=C(Nc1ccc2c(c1)CNC2)c1cc(Cl)cc2[nH]c(-c3cccc(F)c3)nc12 | – | > 50 | EC90 (Zika virus; Vero C1008, Baseline response 0 %, Hill slope 0.814, Maximum measured 40.434 %, Maximum response 100 %, Minimum measured 0.118 %, P-gp concentration 500 nM, R squared 0.904, P-gp inhibitor CP100356): > 50 µM |
| N[C@H]1CC[C@H](c2ccc(NC(=O)c3cc(Cl)cc(NC(=O)OCc4ccccc4)c3)cc2)C1 | 1.49 | – | EC90 (dengue virus type 2; Vero C1008, Baseline response 0 %, Hill slope -16.959, Maximum measured 155.273 %, Maximum response 100 %, Minimum measured 29.767 %, R squared 0.495): > 1.56 µM |
| CNC(=O)[C@H](Nc1cccc(CN)c1)c1cc(Cl)cc(NC(=O)OCc2ccccc2)c1 | 7.81 | – | EC90 (dengue virus type 2; Vero C1008, Baseline response 0 %, EC90 CI (lower) 4.909 uM, EC90 CI (upper) 7.205 uM, Hill slope -8.054, Maximum measured 105.221 %, Maximum response 100 %, Minimum measured 2.373 %, R squared 0.934): 10.3 µM |
| Clc1cccc([C@H](C#Cc2ccccc2)Nc2cccc(-c3nn[nH]n3)c2)c1 | > 6.25 | – | EC90 (dengue virus type 2; Vero C1008, Maximum measured 160.53 %, Minimum measured 108.244 %): > 6.25 µM |
| O=C(Nc1ccc2c(c1)CN[C@H]2C1CC1)c1cc(F)cc2[nH]ncc12 | – | 6.28 | EC90 (Zika virus; Vero C1008): 7.09 µM |
| NCc1ccc([C@H]2C[C@@H]2c2cc(Cl)cc(NC(=O)OCc3ccccc3)c2)cc1 | 2.72 | – | EC90 (dengue virus type 2; Vero C1008, Baseline response 0 %, Hill slope -3.689, Maximum measured 118.529 %, Maximum response 100 %, Minimum measured 38.173 %, R squared 0.774): > 3.12 µM |
| C=CC[C@H](Nc1cccc(-c2nn[nH]n2)c1)c1cc(Cl)cc(NC(=O)OCc2ccccc2)c1 | < 0.391 | – | EC90 (dengue virus type 2; Vero C1008, Baseline response 0 %, EC90 CI (lower) 0.009 uM, EC90 CI (upper) 0.062 uM, Hill slope -1.268, Maximum measured 19.733 %, Maximum response 100 %, Minimum measured 0.468 %, R squared 0.944): 0.74 µM |
| O=C(Nc1cc(Cl)cc(C(=O)Nc2ccc3c(c2)CCNC3)c1)OCc1ccccc1 | > 1.56 | – | EC90 (dengue virus type 2; Vero C1008, Maximum measured 159.578 %, Minimum measured 136.105 %): > 1.56 µM |
| C[C@H]1NCc2cc(NC(=O)c3cc(F)cc4[nH]ncc34)ccc21 | – | > 50 | EC90 (Zika virus; Vero C1008, Baseline response 0 %, Hill slope 1.233, Maximum measured 13.741 %, Maximum response 100 %, Minimum measured -1.755 %, P-gp concentration 500 nM, R squared 0.661, P-gp inhibitor CP100356): > 50 µM |
| CNC(=O)[C@H](Nc1cc(Cl)cc(NC(=O)OCc2ccccc2)c1)c1cccc(CN)c1 | 7.19 | – | EC90 (dengue virus type 2; Vero C1008, Baseline response 0 %, EC90 CI (lower) 3.139 uM, EC90 CI (upper) 9.78 uM, Hill slope -8.413, Maximum measured 116.634 %, Maximum response 100 %, Minimum measured 2.553 %, R squared 0.885): 9.34 µM |
| O=C(Nc1ccc2c(c1)CNC2)c1cc(Cl)cc2[nH]c(-c3ccccc3)nc12 | – | > 50 | EC90 (Zika virus; Vero C1008, Baseline response 0 %, Hill slope 1.72, Maximum measured 10.819 %, Maximum response 100 %, Minimum measured -5.769 %, P-gp concentration 500 nM, R squared 0.199, P-gp inhibitor CP100356): > 50 µM |
| N#C[C@H](Nc1cc(Cl)cc(NC(=O)OCc2ccccc2)c1)c1ccc(-c2nn[nH]n2)cc1 | > 50 | – | EC90 (dengue virus type 2; Vero C1008, Baseline response 0 %, Hill slope -0.236, Maximum measured 132.412 %, Maximum response 100 %, Minimum measured 19.2 %, R squared 0.02): > 50 µM |
| O=C(Nc1ccc2c(c1)CNC2)c1cc(Cl)cc(N2CCCC2)c1 | – | > 50 | EC90 (Zika virus; Vero C1008, Maximum measured 3.676 %, Minimum measured -16.143 %, P-gp concentration 500 nM, P-gp inhibitor CP100356): > 50 µM |
| O=C(Nc1cc(Cl)cc(C(=O)Nc2ccc([C@@H]3C[C@H]3C(=O)O)cc2)c1)OCc1ccccc1 | > 50 | – | EC90 (dengue virus type 2; Vero C1008, Maximum measured 124.209 %, Minimum measured 92.524 %): > 50 µM |

— ChEMBL document CHEMBL5661943, “ASAP - In vitro antiviral effect” (2024)
